{"source": "paper PMC5809414", "about": "“Physician-initiated clinical study of limb ulcers treated with a functional peptide, SR-0379: from discovery to a randomized, double-blind, placebo-controlled trial” (NPJ Aging and Mechanisms of Disease, 2018)", "key": {"healthy men": {"system": "healthy men", "parameters": "species or system human", "conditions": "in vivo", "method": "A closed patch test was performed with SR-0379 at Shinanozaka Clinic (Shinjuku, Tokyo, Japan); the study protocol was approved by the Shinanozaka Clinic institutional review board. The registry number is UMIN000015391, and the URL is https://upload.umin.ac.jp/cgi-open-bin/ctr_e/ctr_view.cgi?recptno=R000017479. Sixty-six men were screened after obtaining informed consent, and a total of 20 healthy men were enrolled for the patch test after obtaining informed consent between October and November 2014. The inclusion criteria for healthy men were: (1) adult age (≧20 years and ≦40 years); (2) body mass index (≧18.5 and <25.0 kg/m^2); and (3) systolic blood pressure (SBP, ≦140 mmHg) and diastolic blood pressure (DBP, ≦90 mmHg); additionally, patients were to be within normal limits in an ECG test. The exclusion criteria were drug allergy or a history thereof, atopic dermatitis or allergic contact dermatitis, skin with dermatitis or inflammation, organ failure (heart, liver, kidney, blood), and others. The closed patch test was performed with a Finn chamber (7 mm) using filter paper containing 0.015 mL of SR-0379 solution (0%, 0.02%, 0.1%, 0.25%, or 0.5%). The allocation was generated by a coordinator and masked for the evaluator. […] Results were evaluated at 1 and 24 h after removal and graded according to the International Contact Dermatitis Research Group criteria (grades 1–6). […]"}, "[1]": {"system": "Pseudomonas aeruginosa, Staphylococcus aureus, MRSA, and Streptococcus pyogenes", "assay": "Bacterial wound cultures (change pre to post)", "type": "in vivo, human", "conditions": "n = 3", "method": "(§1) The primary outcome was the rate of wound size reduction at 4 weeks after the first treatment compared with pre-treatment wound size. Additionally, the following secondary endpoints were measured at 4 weeks after the first treatment and compared with pre-treatment status: time to wound closure; 50% wound size reduction ratio; quantification of Pseudomonas aeruginosa, Staphylococcus aureus, MRSA, and Streptococcus pyogenes; and overall evaluated ulcer improvement. Ulcer size was quantified based on skin ulcer pictures according to a defined procedure using ImageJ software and calculated as the percent change. We also used the DESIGN-R score index, which is calculated based on six components (exudate, size, infection/inflammation, granulation tissue, necrotic tissue, and pocket size), as a tool to score pressure ulcer severity.[23] Depth was excluded from the calculation. The total score was calculated by weighting the score of each item; a high score indicates greater severity. The safety of SR-0379 was evaluated during the treatment period (28 days) every 7 days and post-treatment (7 days) according to the Common Terminology Criteria for Adverse Events (version 4.0)."}, "infected wound": {"system": "infected wound", "conditions": "rat infected wound model, compared with FGF2; cited from earlier work"}, "[2]": {"assay": "Safety evaluation (adverse events) in the clinical study", "type": "in vivo, human", "method": "as §1"}}, "note": "Where a SMILES comes first, the peptide text is derived from it. [ ]: non-standard residue; d: D form."}
{"compound": "CC[C@H](C)[C@H](NC(=O)[C@H](CC(C)C)NC(=O)[C@H](CCCCN)NC(=O)[C@H](CC(C)C)NC(=O)[C@@H](N)CCSC)C(=O)N[C@@H](Cc1ccccc1)C(=O)N[C@@H](CC(C)C)C(=O)N[C@@H](Cc1c[nH]cn1)C(=O)N[C@@H](CCCNC(=N)N)C(=O)N[C@@H](CC(C)C)C(=O)N[C@@H](CCCCN)C(=O)N[C@@H](CCCNC(=N)N)C(=O)N[C@@H](CCSC)C(=O)N[C@@H](CCCNC(=N)N)C(=O)N[C@@H](CCCCN)C(=O)N[C@@H](CCCNC(=N)N)C(=O)N[C@@H](CC(C)C)C(=O)N[C@H](CCCCN)C(=O)N[C@@H](CCCNC(=N)N)C(=O)N[C@@H](CCCCN)C(=O)O", "note": "[SR-0379] (H-MLKLIFLHRLKRMRKRL[dK]RK-OH; N-terminus and C-terminus assumed)", "values": [{"measurement": "skin irritation index scores, assessment", "setting": "healthy men", "result": "within permitted levels for clinical usage"}, {"measurement": "vital signs and electrocardiogram (ECG)", "setting": "healthy men", "result": "no abnormal findings"}, {"measurement": "Bacterial wound cultures, Decrease: number of patients", "setting": "[1]; 0.02% group", "result": 2}, {"measurement": "Bacterial wound cultures, Increase: number of patients", "setting": "[1]; 0.02% group", "result": 1}, {"measurement": "Bacterial wound cultures, No change: number of patients", "setting": "[1]; 0.02% group", "result": 0}, {"measurement": "Bacterial wound cultures, Decrease: number of patients", "setting": "[1]; 0.1% group", "result": 2}, {"measurement": "Bacterial wound cultures, Increase: number of patients", "setting": "[1]; 0.1% group", "result": 0}, {"measurement": "Bacterial wound cultures, No change: number of patients", "setting": "[1]; 0.1% group", "result": 1}, {"measurement": "Bacterial wound cultures, Decrease: number of patients", "setting": "[1]; 0.5% group", "result": 1}, {"measurement": "Bacterial wound cultures, Increase: number of patients", "setting": "[1]; 0.5% group", "result": 0}, {"measurement": "Bacterial wound cultures, No change: number of patients", "setting": "[1]; 0.5% group", "result": 1}, {"measurement": "wound healing effect", "setting": "infected wound", "result": "higher than that of fibroblast growth factor 2 (FGF2)"}, {"measurement": "Adverse event: Outcome", "setting": "[2]; 0.5% SR-0379, person, pneumonia", "result": "Death"}, {"measurement": "Adverse event: Causality", "setting": "[2]; human, in vivo", "result": "No"}, {"measurement": "local adverse events such as itching, rash, or pain during treatment", "setting": "[2]; human, in vivo", "result": "no local adverse events"}, {"measurement": "relation of all adverse events to SR-0379 treatment", "setting": "[2]; human, in vivo", "result": "unrelated"}]}
